Reference: patent publication US20080026996A1, “Selective Vpac2 Receptor Reptide Agonists” (ELI LILLY AND COMPANY, priority 2004, published 2008)
Values joined by “and” are separate entries in the source; they are usually repeats but may differ in a detail not shown here. Equal entries are not always repeated. Where two headings read alike, the source gives them in different places. Where a SMILES comes first, the peptide text is derived from it. Where no end group is shown, it is not given here. [ ]: non-standard residue; d: D form. The star is where a group is joined. Hexanoyl = CCCCCC(=O)*; Aib = CC(C)(N)C(=O)O

Assays:
human VPAC2 [1] = target: T1, human VPAC2 (Homo sapiens, UniProt P41587); experiment: Alpha screen cAMP in vitro potency, human VPAC2 receptor; type: cell-based
T1 construct: expressed in transfected cells
T1 sequence (P41587 24-438): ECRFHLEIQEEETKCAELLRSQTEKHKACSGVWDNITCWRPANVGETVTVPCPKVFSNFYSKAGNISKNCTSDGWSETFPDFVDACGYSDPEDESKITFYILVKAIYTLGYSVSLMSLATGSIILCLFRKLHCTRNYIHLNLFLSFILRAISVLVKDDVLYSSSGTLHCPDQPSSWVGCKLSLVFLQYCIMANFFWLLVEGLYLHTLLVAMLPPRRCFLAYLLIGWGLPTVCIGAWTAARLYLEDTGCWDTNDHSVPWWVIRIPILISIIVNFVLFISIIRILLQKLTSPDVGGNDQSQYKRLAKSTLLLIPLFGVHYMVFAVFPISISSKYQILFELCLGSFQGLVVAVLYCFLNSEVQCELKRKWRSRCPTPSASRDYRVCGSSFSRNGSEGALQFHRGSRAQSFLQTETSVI
Method in brief: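 Dissociated cells, 50,000 per point in stimulation buffer, were incubated with stimuli and AlphaScreen acceptor beads for 60 min.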

human VPAC2 [2] = target: T1, human VPAC2; experiment: Filter binding assay, membranes of stable VPAC2 cell line, 125I-labeled VIP tracer (Table 2)
Method in brief: (§1)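 Scintillation counting of filter-retained radioligand gave the read-out. Compounds competed with the labelled tracer (about 40000 cpm) for 2.5 μg membranes during 1 hour of shaking in HEPES pH 7.4 buffer containing 0.5% BSA.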

Normal Wistar rats = experiment: Intravenous glucose tolerance test (IVGTT); type: in vivo, rat; conditions: for % increase AUC: Dose = 0.5 μg/kg / % increase AUC: Dose = 10 μg/kg: IVGTT, insulin
Method: Intravenous glucose tolerance test (IVGTT): Normal Wistar rats are fasted overnight and are anesthetized prior to the experiment. A blood sampling catheter is inserted into the rats. The compound is given in the jugular vein. Blood samples are taken from the carotid artery. A blood sample is drawn immediately prior to the injection of glucose along with the compound. After the initial blood sample, glucose mixed with compound is injected intravenously (i.v.). A glucose challenge of 0.5 g/kg body weight is given, injecting a total of 1.5 mL vehicle with glucose and agonist per kg body weight. The peptide concentration vary to produce the desired dose in μg/kg. Blood samples are drawn at 2, 4, 6 and 10 minutes after giving glucose. The control group of animals receives the same vehicle along with glucose, but with no compound added. In some instances, a 30 minute post-glucose blood sample is drawn. Aprotinin is added to the blood sample (250 kIU/ml blood). The serum is then analyzed for glucose and insulin using standard methodologies.
The assay uses a formulated and calibrated peptide stock in PBS. Normally, this stock is a prediluted 100 μM stock. However, a more concentrated stock with approximately 1 mg agonist per mL is used. The specific concentration is always known. Variability in the maximal response is mostly due to variability in the vehicle dose.

human VPAC1 = target: T2, human VPAC1 (Homo sapiens, UniProt P32241); experiment: Filter binding assay, membranes of cells transiently transfected with human VPAC1, 125I-labeled VIP tracer (Table 2); set-up: expressed in transfected cells
T2 sequence (P32241 31-457): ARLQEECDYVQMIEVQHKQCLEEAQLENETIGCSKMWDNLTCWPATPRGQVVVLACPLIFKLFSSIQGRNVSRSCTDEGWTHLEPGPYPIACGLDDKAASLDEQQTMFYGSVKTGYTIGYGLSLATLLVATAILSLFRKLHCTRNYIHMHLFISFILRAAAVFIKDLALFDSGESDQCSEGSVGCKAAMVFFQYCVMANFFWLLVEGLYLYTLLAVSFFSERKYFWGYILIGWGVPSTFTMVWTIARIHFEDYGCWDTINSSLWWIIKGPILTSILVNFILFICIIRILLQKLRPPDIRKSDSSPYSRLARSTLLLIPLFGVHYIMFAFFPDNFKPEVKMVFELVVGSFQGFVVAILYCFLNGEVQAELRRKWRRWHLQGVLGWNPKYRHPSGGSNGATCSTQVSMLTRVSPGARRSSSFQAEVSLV
Method in brief: as §1

human PAC1 = target: T3, human PAC1 (Homo sapiens, UniProt P41586); experiment: Filter binding assay, membranes of cells transiently transfected with human PAC1, 125I-labeled PACAP-27 tracer (Table 2); set-up: expressed in transfected cells
T3 sequence (P41586 21-468): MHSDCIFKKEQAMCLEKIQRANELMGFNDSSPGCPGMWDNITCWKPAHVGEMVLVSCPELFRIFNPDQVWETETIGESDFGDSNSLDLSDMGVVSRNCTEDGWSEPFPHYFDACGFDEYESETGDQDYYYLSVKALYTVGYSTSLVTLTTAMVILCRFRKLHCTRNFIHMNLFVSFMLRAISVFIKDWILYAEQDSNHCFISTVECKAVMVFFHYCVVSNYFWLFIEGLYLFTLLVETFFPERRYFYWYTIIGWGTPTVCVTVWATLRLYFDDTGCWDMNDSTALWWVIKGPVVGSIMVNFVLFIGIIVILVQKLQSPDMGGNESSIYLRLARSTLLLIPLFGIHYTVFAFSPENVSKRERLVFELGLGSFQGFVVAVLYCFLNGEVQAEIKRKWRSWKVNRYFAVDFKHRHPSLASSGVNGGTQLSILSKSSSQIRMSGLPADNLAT
Method in brief: as §1

[3] = rat, in vivo, iv; for Exposure (10 μg/kg, Vdist in μg/(nM * kg)): 10 ug/kg
[4] = cAMP generation, single result from two analyses performed in a single run, read-out: Human VPAC2 Receptor: Alpha Screen EC50
[5] = read-out: Human VPAC2 Receptor Binding
[6] = read-out: Human VPAC1 Receptor Binding
[7] = read-out: Human PAC1 Receptor Binding

| Compound | EC50 (human VPAC2 [1]) [nM] | IC50 (human VPAC2 [2]) [nM] | % increase AUC: Dose = 0.5 μg/kg (Normal Wistar rats) | % increase AUC: Dose = 10 μg/kg (Normal Wistar rats) | IC50 (human VPAC1) [nM] | IC50 (human PAC1) [nM] | EC50 (human VPAC2 [1]; [4]) [nM] | IC50 (human VPAC2 [2]; [5]) [nM] | Exposure (10 μg/kg, Vdist in μg/(nM * kg)) [3] [µg/nM/kg] | IC50 (human VPAC1; [6]) [nM] | IC50 (human PAC1; [7]) [nM] | Exposure (0.5 μg/kg, Vdist in μg/(nM * kg)) ([3]; 0.5 ug/kg) [µg/nM/kg] | IVGTT ED50 (Normal Wistar rats) [µg/kg] |
| --- | --- | --- | --- | --- | --- | --- | --- | --- | --- | --- | --- | --- | --- |
| H-MHSDAVFTDNYTRLRKQVAAKKYLQSIKNKRYGGPSSGAPPPS [Agonist P104] | 0.27 | 0.68 | 142% and 205% | 198% and 370% | 301 | 117 |  |  |  |  |  |  |  |
| Hexanoyl-HSDAVFTDNYTRLR[Aib]QVAA[Aib]KYLQSIKNKRYGGPSSGAPPPS [Agonist P261] |  |  | 136% | 320% |  |  | 0.09 | 0.2 | 0.8 | 1000 | > 25000 |  |  |
| CCCCCC(=O)N[C@@H](Cc1c[nH]cn1)C(=O)N[C@@H](CO)C(=O)N[C@@H](CC(=O)O)C(=O)N[C@@H](C)C(=O)N[C@H](C(=O)N[C@@H](Cc1ccccc1)C(=O)N[C@H](C(=O)N[C@@H](CC(=O)O)C(=O)N[C@@H](CC(N)=O)C(=O)N[C@@H](Cc1ccc(O)cc1)C(=O)N[C@H](C(=O)N[C@@H](CCCNC(=N)N)C(=O)N[C@@H](CC(C)C)C(=O)N[C@@H](CCCNC(=N)N)C(=O)NC(C)(C)C(=O)N[C@@H](CCC(N)=O)C(=O)N[C@@H](CC(C)C)C(=O)N[C@@H](C)C(=O)N[C@@H](C)C(=O)NC(C)(C)C(=O)N[C@@H](CCCCN)C(=O)N[C@@H](Cc1ccc(O)cc1)C(=O)N[C@@H](CC(C)C)C(=O)N[C@@H](CCC(N)=O)C(=O)N[C@@H](CO)C(=O)N[C@H](C(=O)N[C@@H](CCCCN)C(=O)N[C@@H](CC(N)=O)C(=O)N[C@@H](CCCCN)C(=O)NCC(=O)NCC(=O)N1CCC[C@H]1C(=O)N[C@@H](CO)C(=O)N[C@@H](CO)C(=O)NCC(=O)N[C@@H](C)C(=O)N1CCC[C@H]1C(=O)N1CCC[C@H]1C(=O)N1CCC[C@H]1C(=O)N[C@@H](CO)C(=O)O)[C@@H](C)CC)[C@@H](C)O)[C@@H](C)O)C(C)C [Agonist P292] (Hexanoyl-HSDAVFTDNYTRLR[Aib]QLAA[Aib]KYLQSIKNKGGPSSGAPPPS-OH; C-terminus assumed) |  |  | 292% | 370% |  |  | 0.23 | 0.3 | 1.9 | > 3000 | > 25000 | 9.5 |  |
| Hexanoyl-HSDAVFTDNYTRLRKQVAAKKYLQSIKNKRYGGPSSGAPPPS [Agonist P31] |  |  | 250% |  |  |  | 0.13 | 0.23 | 10 | 145 | 406 |  |  |
| Hexanoyl-HSDAVFTDNYTRLR[Aib]QVAAK[Aib]YLQSIKNKRYGGPSSGAPPPS [Agonist P264] |  |  | 10% | 95% |  |  | 0.1 | 0.88 | 5.1 | > 3000 | > 25000 |  |  |
| Hexanoyl-HSDAVFTDNYTRLLAKLALQKYLQSIKNKRYGGPSSGAPPPS [Agonist P119] |  |  | 118% | 240% |  |  | 0.42 | 0.48 |  | > 3000 | > 25000 |  | 0.3 |
